≈ marks a conversion by molar mass, not a printed value. Calls of active or inactive are those of the source. The rule behind the calls is not given here.
Legend:
[1] = system: Paracoccidioides brasiliensis; assay: Antifungal activity against Paracoccidioides brasiliensis Pb18; format: functional
[2] = system: Paracoccidioides brasiliensis; assay: Antifungal activity against Paracoccidioides brasiliensis Pb18 in presence of amphotericin B; format: functional
[3] = Selectivity index, ratio for cytotoxicity for human HeLa cells to MIC for Paracoccidioides brasiliensis Pb18; format: toxicity, cell-based
HeLa = assay: Cytotoxicity against human HeLa cells at 512 ug/ml; format: cell-based
[4] = system: Paracoccidioides brasiliensis; assay: Synergistic antifungal activity against Paracoccidioides brasiliensis Pb18 assessed as fractional inhibitory concentration in presence of amphotericin B; format: functional
Vero = assay: Cytotoxicity against monkey Vero cells at 512 ug/ml; format: cell-based; details: chlorocebus sabaeus
Candida = assay: Antifungal activity against Candida; format: functional, organism-based
[5] = Selectivity index, ratio for cytotoxicity for monkey Vero cells to MIC for Paracoccidioides brasiliensis Pb18; format: toxicity, cell-based
[6] = system: Paracoccidioides brasiliensis; assay: Antifungal activity against Paracoccidioides brasiliensis Pb18 in presence of 0.25 ug/ml amphotericin B; format: functional
[7] = system: Paracoccidioides brasiliensis; assay: Fungicidal activity against Paracoccidioides brasiliensis Pb18; format: functional
[8] = system: Paracoccidioides brasiliensis; assay: Antifungal activity against Paracoccidioides brasiliensis Pb18 in presence of 0.125 ug/ml amphotericin B; format: functional
Nakaseomyces glabratus = assay: Antifungal activity against Candida glabrata; format: functional
[9] = system: Paracoccidioides brasiliensis; assay: Antifungal activity against Paracoccidioides brasiliensis Pb18 in presence of 0.06 ug/ml amphotericin B; format: functional
Candida albicans = assay: Antifungal activity against Candida albicans; format: functional
Candida tropicalis = assay: Antifungal activity against Candida tropicalis; format: functional
[10] = system: Paracoccidioides brasiliensis; assay: Antifungal activity against Paracoccidioides brasiliensis Pb18 in presence of 0.01 ug/ml amphotericin B; format: functional

Row | Structure (SMILES) | MIC [1] [µg/mL] | MIC [2] [µg/mL] | selectivity ratio [3] | Activity (HeLa) [%] | FIC [4] | Activity (Vero) [%] | Activity (Candida) | selectivity ratio [5] | MFC [7] [µg/mL] | further results
1 | COc1cc(/C=N/NC(=O)c2n[nH]c(=O)c3nc(-c4ccccc4)ncc23)ccc1O | > 256 |  |  |  |  |  |  |  |  | 
2 | CN(C)c1ccc(/C=N/NC(=O)c2n[nH]c(=O)c3nc(-c4ccccc4)ncc23)cc1 | > 256 |  |  |  |  |  |  |  |  | 
3 | O=C(N/N=C/c1ccc([N+](=O)[O-])cc1)c1n[nH]c(=O)c2nc(-c3ccccc3)ncc12 | > 256 |  |  |  |  |  |  |  |  | 
4 | O=C(N/N=C/c1ccccn1)c1n[nH]c(=O)c2nc(-c3ccccc3)ncc12 | > 256 |  |  |  |  |  |  |  |  | 
5 | O=C(N/N=C/c1ccc(F)cc1)c1n[nH]c(=O)c2nc(-c3ccccc3)ncc12 | 32 (≈ 82.4 µM) | 8 | 5 | > 80 | 0.625 | > 80 | inactive | 5 | 32 (≈ 82.4 µM) | MIC [6]: 0.5 µg/mL
6 | C[C@@H]1[C@H](O)[C@@H](C)/C=C/C=C/C=C/C=C/C=C/C=C/C=C/[C@H](O[C@@H]2O[C@H](C)[C@@H](O)[C@H](N)[C@@H]2O)C[C@@H]2O[C@](O)(C[C@@H](O)C[C@@H](O)[C@H](O)CC[C@@H](O)C[C@@H](O)CC(=O)O[C@H]1C)C[C@H](O)[C@H]2C(=O)O [AMPHOTERICIN B] | 1 (≈ 1.08 µM) |  |  |  |  |  |  |  | 1 (≈ 1.08 µM) | 
7 | O=C(N/N=C/c1cc([N+](=O)[O-])ccc1O)c1n[nH]c(=O)c2nc(-c3ccccc3)ncc12 | 128 (≈ 297 µM) | 8 | 3 | > 80 | 0.625 | > 80 | inactive | 3 | 128 (≈ 297 µM) | MIC [8]: 0.25 µg/mL
8 | O=C(N/N=C/c1cc(Cl)ccc1O)c1n[nH]c(=O)c2nc(-c3ccccc3)ncc12 | 64 (≈ 152 µM) | 4 | 4 | > 80 | 0.245 | > 80 |  | 4 | 64 (≈ 152 µM) | MIC (Nakaseomyces glabratus): 4 µg/mL (≈ 9.51 µM); MIC [9]: 0.5 µg/mL
9 | O=C(N/N=C/c1ccccc1)c1n[nH]c(=O)c2nc(-c3ccccc3)ncc12 | 0.125 (≈ 0.337 µM) | 0.031 | 13 | > 80 | 0.134 | > 80 |  | 13 | 0.5 (≈ 1.35 µM) | MIC (Candida albicans): 4 µg/mL (≈ 10.8 µM); MIC (Candida tropicalis): 8 µg/mL (≈ 21.6 µM); MIC [10]: 1 µg/mL
10 | CCC(C)n1ncn(-c2ccc(N3CCN(c4ccc(OCC5COC(Cn6cncn6)(c6ccc(Cl)cc6Cl)O5)cc4)CC3)cc2)c1=O (stereo not drawn) [ITRACONAZOLE] | 1 (≈ 1.42 µM) |  |  |  |  |  |  |  |  | 
11 | O=C(N/N=C/c1cccs1)c1n[nH]c(=O)c2nc(-c3ccccc3)ncc12 | > 256 |  |  |  |  |  |  |  |  | 
12 | NNC(=O)c1n[nH]c(=O)c2nc(-c3ccccc3)ncc12 | > 256 |  |  |  |  |  |  |  |  | 
13 | O=C(N/N=C/c1ccccc1O)c1n[nH]c(=O)c2nc(-c3ccccc3)ncc12 | 128 (≈ 331 µM) | 8 | 3 | > 80 | 0.625 | > 80 | inactive | 3 | 128 (≈ 331 µM) | MIC [8]: 0.25 µg/mL
14 | COc1ccc(/C=N/NC(=O)c2n[nH]c(=O)c3nc(-c4ccccc4)ncc23)cc1 | > 256 |  |  |  |  |  |  |  |  | 
15 | COc1ccc(/C=N/NC(=O)c2n[nH]c(=O)c3nc(-c4ccccc4)ncc23)cc1OC | 64 (≈ 149 µM) | 16 | 4 | > 80 | 0.625 | > 80 | inactive | 4 | 64 (≈ 149 µM) | MIC [6]: 0.5 µg/mL
16 | O=C(N/N=C/c1ccc(-c2cccs2)s1)c1n[nH]c(=O)c2nc(-c3ccccc3)ncc12 | > 256 |  |  |  |  |  |  |  |  | 
17 | O=C(N/N=C/c1ccc(O)cc1)c1n[nH]c(=O)c2nc(-c3ccccc3)ncc12 | 32 (≈ 82.8 µM) | 16 | 5 | > 80 | 0.37 | > 80 | inactive | 5 | 32 (≈ 82.8 µM) | MIC [9]: 0.5 µg/mL
18 | COc1cc(/C=N/NC(=O)c2n[nH]c(=O)c3nc(-c4ccccc4)ncc23)cc(OC)c1O | 64 (≈ 143 µM) | 16 | 4 | > 80 | 0.75 | > 80 | inactive | 4 | 64 (≈ 143 µM) | MIC [8]: 0.5 µg/mL
19 | O=C(N/N=C/c1cccc([N+](=O)[O-])c1)c1n[nH]c(=O)c2nc(-c3ccccc3)ncc12 | > 256 |  |  |  |  |  |  |  |  | 
